Reference: PubChem BioAssay AID1963873 (Molecular Pharmacology Branch, DTP, NCI, 2024)
pIC50: −log10 of the molar value.

Tested on: 276233-004-R-J1-PDC KRAS spheroids with HUVEC/MSC, viability
Experiment: Anticancer human tumor 276233-004-R-J1-PDC patient-derived colon adenocarcinoma cell line growth inhibition [KRAS2]
Conditions: for pIC50: curve of first compound; for viability, T/C: stronger effect = lower value
Procedure, shortened: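 Combination screen of spheroid viability in tumor-cell co-cultures with endothelial (HUVEC) and mesenchymal stem cell stroma. Each agent was tested in half-log dilutions, topping at clinical Cmax or at 10 microM without a known Cmax.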

[1] = second compound 0.1 µM, first compound 0.00316 µM
[2] = second compound 0.1 µM, first compound 0.01 µM
[3] = second compound 0.1 µM, first compound 0.0316 µM
[4] = second compound 0.1 µM, first compound 0.1 µM
[5] = second compound 0.1 µM, first compound 0.316 µM
[6] = second compound 0.1 µM, first compound 1 µM
[7] = second compound 0.316 µM, first compound 0.00316 µM
[8] = second compound 0.316 µM, first compound 0.01 µM
[9] = second compound 0.316 µM, first compound 0.0316 µM
[10] = second compound 0.316 µM, first compound 0.1 µM
[11] = second compound 0.316 µM, first compound 0.316 µM
[12] = second compound 0.316 µM, first compound 1 µM
[13] = second compound 1 µM, first compound 0.00316 µM
[14] = second compound 1 µM, first compound 0.01 µM
[15] = second compound 1 µM, first compound 0.0316 µM
[16] = second compound 1 µM, first compound 0.1 µM
[17] = second compound 1 µM, first compound 0.316 µM
[18] = second compound 1 µM, first compound 1 µM
[19] = second compound 3.16 µM, first compound 0.00316 µM
[20] = second compound 3.16 µM, first compound 0.01 µM
[21] = second compound 3.16 µM, first compound 0.0316 µM
[22] = second compound 3.16 µM, first compound 0.1 µM
[23] = second compound 3.16 µM, first compound 0.316 µM
[24] = second compound 3.16 µM, first compound 1 µM
[25] = second compound 10 µM, first compound 0.00316 µM
[26] = second compound 10 µM, first compound 0.01 µM
[27] = second compound 10 µM, first compound 0.0316 µM
[28] = second compound 10 µM, first compound 0.1 µM
[29] = second compound 10 µM, first compound 0.316 µM
[30] = second compound 10 µM, first compound 1 µM
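Further: cells exposed to agents for seven days before viability read.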
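Wherever viability, T/C is given: 100% = DMSO vehicle control wells and lower values mean fewer viable cells.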

| SMILES | pIC50 (second compound 0.1 µM) | pIC50 (second compound 0.316 µM) | pIC50 (second compound 1 µM) | pIC50 (second compound 3.16 µM) | pIC50 (second compound 10 µM) | viability, T/C [1] [%] | viability, T/C [2] [%] | viability, T/C [3] [%] | viability, T/C [4] [%] | viability, T/C [5] [%] | viability, T/C [6] [%] | viability, T/C [7] [%] | viability, T/C [9] [%] | viability, T/C [10] [%] | viability, T/C [15] [%] | viability, T/C [16] [%] | viability, T/C [21] [%] | viability, T/C [22] [%] | viability, T/C [27] [%] | viability, T/C [28] [%] | also measured |
| --- | --- | --- | --- | --- | --- | --- | --- | --- | --- | --- | --- | --- | --- | --- | --- | --- | --- | --- | --- | --- | --- |
| CCN1CCN(Cc2ccc(Nc3ncc(F)c(-c4cc(F)c5nc(C)n(C(C)C)c5c4)n3)nc2)CC1 + C=CC(=O)N1CCN(c2nc(=O)n(-c3c(C)ccnc3C(C)C)c3nc(-c4c(O)cccc4F)c(F)cc23)C(C)C1 | < 6.00 | < 6.00 | < 6.00 | < 6.00 | < 6.00 | 85.7 | 105 | 83.5 | 98.2 | 88.1 | 106 | 100 | 82.4 | 81.8 | 93.7 | 88.8 | 91.2 | 80.2 | 69.7 | 70.3 | viability, T/C [8]: 78.8%; viability, T/C [11]: 101%; viability, T/C [12]: 125%; viability, T/C [13]: 95%; viability, T/C [14]: 118%; viability, T/C [17]: 110%; viability, T/C [18]: 101%; viability, T/C [19]: 92.7%; viability, T/C [20]: 101%; viability, T/C [23]: 74.2%; viability, T/C [24]: 119%; viability, T/C [25]: 62.9%; viability, T/C [26]: 68.2%; viability, T/C [29]: 87.1%; viability, T/C [30]: 65.4% |
| O=C(c1cc(Cc2n[nH]c(=O)c3ccccc23)ccc1F)N1CCN(C(=O)C2CC2)CC1 + COc1cc2nc(C)nc(NC(C)c3cc(N)cc(C(F)(F)F)c3)c2cc1OC1CCOC1 | < 5.00 | < 5.00 | < 5.00 | < 5.00 | 6.96 | – | – | 89.7 | 102 | 92.5 | 96 | – | 91.1 | 100 | 102 | 111 | 71.4 | 77.8 | 98.9 | 45.8 | viability, T/C (second compound 0.1 µM, first compound 3.16 µM): 103%; viability, T/C (second compound 0.1 µM, first compound 10 µM): 86.5%; viability, T/C [11]: 98%; viability, T/C [12]: 88.9%; viability, T/C (second compound 0.316 µM, first compound 3.16 µM): 87.3%; viability, T/C (second compound 0.316 µM, first compound 10 µM): 75.8%; viability, T/C [17]: 96.8%; viability, T/C [18]: 89.2%; viability, T/C (second compound 1 µM, first compound 3.16 µM): 96.8%; viability, T/C (second compound 1 µM, first compound 10 µM): 86.3%; viability, T/C [23]: 85.8%; viability, T/C [24]: 66%; viability, T/C (second compound 3.16 µM, first compound 3.16 µM): 68.3%; viability, T/C (second compound 3.16 µM, first compound 10 µM): 58%; viability, T/C [29]: 40.9%; viability, T/C [30]: 35.5%; viability, T/C (second compound 10 µM, first compound 3.16 µM): 26%; viability, T/C (second compound 10 µM, first compound 10 µM): 21.6% |
| CC(C)n1nc(-c2ccc3oc(N)nc3c2)c2c(N)ncnc21 + CC1OCC2(CCN(c3cnc(Sc4ccnc(N)c4Cl)c(N)n3)CC2)C1N | 7.17 | < 7.00 | 7.31 | 7.92 | 8.11 | 71.9 | 69.7 | 54.1 | 47.1 | – | – | 67.5 | 53.8 | 57.5 | 52.5 | 44.7 | 40.3 | 32.5 | 43.4 | 40.1 | viability, T/C (second compound 0.1 µM, first compound 0.000316 µM): 87.9%; viability, T/C (second compound 0.1 µM, first compound 0.001 µM): 104%; viability, T/C (second compound 0.316 µM, first compound 0.000316 µM): 90.9%; viability, T/C (second compound 0.316 µM, first compound 0.001 µM): 81.7%; viability, T/C [8]: 68.9%; viability, T/C (second compound 1 µM, first compound 0.000316 µM): 80.9%; viability, T/C (second compound 1 µM, first compound 0.001 µM): 68.1%; viability, T/C [13]: 77%; viability, T/C [14]: 59.1%; viability, T/C (second compound 3.16 µM, first compound 0.000316 µM): 73.7%; viability, T/C (second compound 3.16 µM, first compound 0.001 µM): 74.5%; viability, T/C [19]: 51.6%; viability, T/C [20]: 57.7%; viability, T/C (second compound 10 µM, first compound 0.000316 µM): 70.6%; viability, T/C (second compound 10 µM, first compound 0.001 µM): 66.8%; viability, T/C [25]: 64.4%; viability, T/C [26]: 45.9% |
